# Tested on: hamster cheek pouch mucosa
# Test: Radiation-induced mucositis, hamster cheek pouch model
# Assay type: in vivo
# Details: 50 mM or 500 mM topical for 30 min before 30 Gy (17.5 min) irradiation
# Source text: The model for radiation-induced oral mucositis was developed for the purpose of screening and identifying effective polyamines and aminothiols useful for treatment. The model used in this example was derived from the oral mucositis model described by Alvarez et al. (Clin. Cancer Research 9:3454-3461, 2003). Male golden Syrian hamsters (70-95 gram, Charles River Laboratories, Wilmington, Mass.) were used. Animals were individually numbered, housed in small groups and fed and watered ad libitum. Hamsters were anesthetized with sodium pentobarbital (80 mg/kg body weight, Sigma, St. Louis, Mo.). The left buccal cheek pouch was everted and secured. A protective lead shield covered the remainder of the animal. Subsequently, the cheek pouch was irradiated with a single dose of radiation from 20 to 40 Gy delivered to the targeted mucosa in the ^137Cs irradiator. Starting 10 to 12 days after radiation, the severity of mucositis was assessed every two days. The severity level of mucositis was evaluated using a modified mucositis scoring system described by Sonis S. T. et al. (Oral Oncology 36:373-381, 2000)
# The scoring system was as follows: • 0=Pouch completely healthy. No erythema or vasodilatation. • 1=Erythema. • 2=Severe erythema, vasodilatation • 3=Severe erythema/vasodilatation. Superficial erosion on radiated pouch surface area. • 4=Formation of ulcers in one or more places. […]
smiles,measurement,value
"CNCC(CS)CNC [PrC-210, 3-methylamino-2-methylaminomethyl-propane-1-thiol]","effect on radiation-induced erythema, swelling and inflexibility of cheek pouch","significant decrease in the erythema, swelling and inflexibility"

# Reference: patent US7314959B2, “Amino thiol compounds and compositions for use in conjunction with cancer therapy” (Wisconsin Alumni Research Foundation, priority 2003, dated 2008)
